Laboratory results reported in patent publication US20230174473A1, “ANTIMICROBIAL AND ANTIVIRAL SULFUR CONTAINING GLYCEROL MONOESTER DERIVATIVES” (priority 2020, published 2023).
Converted amounts (≈) assume the structure as drawn.

Experiments:
[1] = system: Bordetella bronchiseptica; details: Gram Negative; Aerobe; 1 strain tested; cited from earlier work
Mycobacterium phlei = details: Acid Fast; Aerobe; 1 strain tested; cited from earlier work
Campylobacter jejuni = details: Gram Negative; Aerobe; 1 strain tested; cited from earlier work
Streptococcus suis = details: Gram Positive; Aerotolerant Anaerobe; 1 strain tested; cited from earlier work
Bacillus subtilis = experiment: MIC/MBC at 24 hours; assay type: cell-based; details: Time 0 1.1E+07 CFU/ml, 200 RPM shaking at 37° C.
Experimental: Bacillus subtilis, an aerobic spore-former, was incubated with 200 RPM shaking at 37° C. The strain was a recent clinical isolate at the University of Iowa, and proves to develop resistance to standard […] agents.
(§1) All solutions used in the MBC and MIC studies were prepared from a stock of 100 mg/ml of either GML, SGML or S2GML in absolute ethanol.

Pseudomonas aeruginosa = details: Gram Negative; Aerobe; 1 strain tested; cited from earlier work
Staphylococcus aureus = details: Gram Positive; Aerobe; 54 strains tested; cited from earlier work
Neisseria gonorrhoeae = details: Gram Negative; Aerobe; 1 strain tested; cited from earlier work
Streptococcus pyogenes = details: Gram Positive; Aerotolerant Anaerobe; 4 strains tested; cited from earlier work
Escherichia coli = details: Gram Negative; Aerobe; 2 strains tested; cited from earlier work
Gardnerella vaginalis = details: Gram Negative; Aerobe; 2 strains tested; cited from earlier work
[2] = system: Prevotella melaninogenica; details: Gram Negative; Anaerobe; 1 strain tested; cited from earlier work
Group G Streptococcus = details: Gram Positive; Aerotolerant Anaerobe; 1 strain tested; cited from earlier work
Group F Streptococcus = details: Gram Positive; Aerotolerant Anaerobe; 1 strain tested; cited from earlier work
Pasteurella multocida = details: Gram Negative; Aerobe; 1 strain tested; cited from earlier work
Streptococcus sanguinis = details: Gram Positive; Aerotolerant Anaerobe; 1 strain tested; cited from earlier work
[3] = system: Haemophilus influenza Non-typable; details: Gram Negative; Aerobe; 2 strains tested; cited from earlier work
Listeria monocytogenes = details: Gram Positive; Aerobe; 1 strain tested; cited from earlier work
Bacillus cereus = details: Gram Positive; Aerobe; 1 strain tested; cited from earlier work
[4] = system: Bacillus anthracis Sterne; details: Gram Positive; Aerobe; 1 strain tested; cited from earlier work
[5] = system: Staphylococcus aureus strain MN8; experiment: MIC and MBC assay, broth dilution with plate counts; assay type: cell-based; details: Staphylococcus aureus, MN8, 24 h
Experimental: For this experiment, all cultures were aerobic at 37° C. with 150 RPM gyrotary shaking. Stationary phase with this microbe is 1.0x1010 colony-forming units (CFUs)/ml. The next morning the culture was diluted to approximately 5x10^6/ml in 1 ml amounts of Todd Hewitt broth in 5 ml polystyrene test tubes. The tubes contained serial two-fold dilutions of glycerol monolaurate, SGML, or […]. The control tubes contained no GML or SGML and […] compounds. The compounds were tested in triplicate. […] The control tube contained the highest volume of ethanol that was used to deliver the compounds to each 1 ml test tube. […] Once plated, the plates were incubated aerobically for 24 hours at 37° C. Counts were made to determine CFUs/ml. The CFUs/ml were log-transformed and mean ± SD were determined. Using the standard MIC and MBC assay above with staphylococcus aureus strain […] and […] were tested with GML.

Klebsiella pneumoniae = details: Gram Negative; Aerobe; 1 strain tested; cited from earlier work
[6] = system: glycerol ester hydrolase (lipase); experiment: Lipase production by S. aureus in presence of GML; assay type: cell-based, Staphylococcus aureus; details: S. aureus strains
Salmonella Minnesota = details: Gram Negative; Aerobe; 1 strain tested; cited from earlier work
Enterobacter aerogenes = details: Gram Negative; Aerobe; 1 strain tested; cited from earlier work
Candida auris = experiment: MIC/MBC at 24 hours; assay type: cell-based; details: Time 0 4.5E+05 CFU/ml
Experimental: Candida auris is a newly emerging yeast (fungus) that is causing skin and bloodstream infections in humans. It easily becomes resistant to anti-fungal agents, making development of novel therapeutics a necessity. This organism is related to Candida albicans and other Candida species. The MIC and MBC in the above table show very good activity of both the SGML and S2GML versus this organism.
as §1

Bacteroides fragilis = details: Gram Negative; Anaerobe; 2 strains tested; cited from earlier work
[7] = system: Gram-negative bacteria with an intact lipopolysaccharide, such as Escherichia coli; experiment: Killing of Gram-negative bacteria with intact lipopolysaccharide by GML; assay type: cell-based
Burkholderia cenocepacia = details: Gram Negative; Aerobe; 1 strain tested; cited from earlier work
Enterococcus faecalis = details: Gram Positive; Aerotolerant Anaerobe; 1 strain tested; cited from earlier work
[8] = system: Escherichia coli (e. coli); details: Welch et al., mBio 2020; cited from earlier work
[9] = system: other Gram-positive bacteria and Gram-negative bacteria with an incomplete lipopolysaccharide; experiment: Killing of other bacteria by GML; assay type: cell-based; details: other Gram-positive bacteria and Gram-negative bacteria with lipo-oligosaccharide
[10] = system: Mycobacterium tuberculosis; details: Acid Fast; Aerobe; 1 strain tested; cited from earlier work
[11] = system: Streptococcus pneumoniae Serotype III; details: Gram Positive; Aerotolerant Anaerobe; 2 strains tested; cited from earlier work
Shigella sonnei = details: Gram Negative; Aerobe; 1 strain tested; cited from earlier work

CCCCCCCCCCCC(=O)OCC(O)CO (stereo not shown) [GML, glycerol monolaureate]
Average Bactericidal Concentration [1]: 1 mg/mL
Average Bactericidal Concentration (Mycobacterium phlei): 100 mg/mL
Average Bactericidal Concentration (Campylobacter jejuni): 1 mg/mL
Average Bactericidal Concentration (Streptococcus suis): 50 mg/mL
MIC/MBC (Bacillus subtilis): 50 µg/mL (≈ 182 µM)
Average Bactericidal Concentration (Pseudomonas aeruginosa): Not Susceptible
Average Bactericidal Concentration (Staphylococcus aureus): 300 mg/mL
Average Bactericidal Concentration (Neisseria gonorrhoeae): 20 mg/mL
Average Bactericidal Concentration (Streptococcus pyogenes): 30 mg/mL
Average Bactericidal Concentration (Escherichia coli): Not Susceptible
Average Bactericidal Concentration (Gardnerella vaginalis): 10 mg/mL
Average Bactericidal Concentration [2]: 50 mg/mL
Average Bactericidal Concentration (Group G Streptococcus): 50 mg/mL
Average Bactericidal Concentration (Group F Streptococcus): 20 mg/mL
Average Bactericidal Concentration (Pasteurella multocida): 500 mg/mL
Average Bactericidal Concentration (Streptococcus sanguinis): 50 mg/mL
Average Bactericidal Concentration [3]: 50 mg/mL
Average Bactericidal Concentration (Listeria monocytogenes): 50 mg/mL
Average Bactericidal Concentration (Bacillus cereus): 50 mg/mL
Average Bactericidal Concentration [4]: 50 mg/mL
MBC ([5]; read-out: minimum bactericidal concentration (MBC)): 250 µg/mL (≈ 911 µM)
MIC ([5]; read-out: minimum inhibitory concentration (MIC)): 250 µg/mL (≈ 911 µM)
Average Bactericidal Concentration (Klebsiella pneumoniae): Not Susceptible
GML concentration at which lipase cannot be produced [6]: about 300 µg/ml
Average Bactericidal Concentration (Salmonella Minnesota): Not Susceptible
Average Bactericidal Concentration (Enterobacter aerogenes): Not Susceptible
MIC/MBC (Candida auris): 50 µg/mL (≈ 182 µM)
Average Bactericidal Concentration (Bacteroides fragilis): 50 mg/mL
concentration that kills ([7]; with accelerants: low pH and EDTA addition): 25 to 50 µg/mL
susceptibility to GML ([7]; without accelerants): completely resistant
Average Bactericidal Concentration (Burkholderia cenocepacia): 500 mg/mL
Average Bactericidal Concentration (Enterococcus faecalis): 100 mg/mL
effectiveness against Escherichia coli [8]: not effective
concentrations that kill [9]: 25 to 50 µg/mL
Average Bactericidal Concentration [10]: 100 mg/mL
Average Bactericidal Concentration [11]: 10 mg/mL
Average Bactericidal Concentration (Shigella sonnei): Not Susceptible
